According to patent US6875578B2, “System for cell-based screening” (priority 1997, dated 2005):

Assays:
[1] = test system: mitochondrial potential in hepatocytes; assay: JC-1 mitochondrial potential measurement, hepatocytes; assay type: cell-based, rat; conditions: various concentrations, nearly complete within seconds to minutes
Excerpt: (§1) We have utilized a positively charged cyanine dye, JC-1 (Molecular Probes, Eugene, Oreg.), which diffuses into the cell and readily partitions into the mitochondrial membrane, for measurement of mitochondrial potential. The photophysics of JC-1 are such that when the probe partitions into the mitochondrial membrane and it experiences an electrical potential >140 mV, the probe aggregates and its spectral response is shifted to the red. At membrane potential values <140 mV, JC-1 is primarily monomeric and its spectral response is shifted toward the blue. Therefore, the ratio of two emission wavelengths (645 nm and 530 nm) of JC-1 partitioned into mitochondria provides a sensitive and continuous measure of mitochondrial membrane potential.
(§2) • 1. […] (2 times, 150 μl/well), the toxins were added if required, and the entire plate was scanned in a plate reader. The JC-1 monomer was measured optimally with a 485 nm excitation/530 nm emission wavelength filter set, and the aggregates were best measured with a 590 nm excitation/645 nm emission wavelength set. […]
(§3) The mitochondrial potential within several types of living cells, and the effects of toxins on the potential were measured using the fluorescence ratio Em 645 (590)/Em 530 (485) (excitation wavelengths in parentheses). For example, we measured the effect of 10 μM valinomycin on the mitochondrial potential within LLCPK cells (pig epithelia). […]

[2] = test system: mitochondrial potential within LLCPK cells; assay: JC-1 mitochondrial potential measurement, LLCPK cells; assay type: cell-based, pig; conditions: 10 μM valinomycin, within seconds of treatment
Excerpt: as §1, §2, §3

CC(C)[C@@H]1NC(=O)[C@H](C)OC(=O)[C@@H](C(C)C)NC(=O)[C@@H](C(C)C)OC(=O)[C@H](C(C)C)NC(=O)[C@H](C)OC(=O)[C@@H](C(C)C)NC(=O)[C@@H](C(C)C)OC(=O)[C@H](C(C)C)NC(=O)[C@H](C)OC(=O)[C@@H](C(C)C)NC(=O)[C@@H](C(C)C)OC1=O [Valinomycin]
changes in mitochondrial potential [1]: sensitive to valinomycin | reduction in mitochondrial potential (fluorescence ratio Em 645/Em 530 of JC-1) [2]: approximately 50%
